Patent US11021481B2, “Substituted isoindolin-1-ones and 2,3-dihydro-1h-pyrrolo[3,4-c]pyridin-1-ones as HPK1 antagonists” (Nimbus Saturn, Inc., priority 2019, dated 2021)
pIC50: −log10 of the molar value. Structures can show the parent of a compound that is named as a salt.

molecular target: HPK1 (Homo sapiens (Human), UniProt Q92918); test: HPK1 biochemical enzyme assay (microfluidic mobility shift assay); settings: 1.5 nM HPK1, ATP 1 mM final, 30 min preincubation, 60 min at RT, Caliper EZ Reader; read-out: HPK1 1000UMATP caliper IC50
Outline: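 Ten-point compound titrations (top 3 μM final) preincubated 30 min with HPK1 and substrate, then reaction started with 1 mM ATP and 1 μM substrate, 5 mM MgCl2. After 60 min at RT, reaction terminated and product measured by microfluidic mobility shift.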

Chain of HPK1 (Q92918 whole entry): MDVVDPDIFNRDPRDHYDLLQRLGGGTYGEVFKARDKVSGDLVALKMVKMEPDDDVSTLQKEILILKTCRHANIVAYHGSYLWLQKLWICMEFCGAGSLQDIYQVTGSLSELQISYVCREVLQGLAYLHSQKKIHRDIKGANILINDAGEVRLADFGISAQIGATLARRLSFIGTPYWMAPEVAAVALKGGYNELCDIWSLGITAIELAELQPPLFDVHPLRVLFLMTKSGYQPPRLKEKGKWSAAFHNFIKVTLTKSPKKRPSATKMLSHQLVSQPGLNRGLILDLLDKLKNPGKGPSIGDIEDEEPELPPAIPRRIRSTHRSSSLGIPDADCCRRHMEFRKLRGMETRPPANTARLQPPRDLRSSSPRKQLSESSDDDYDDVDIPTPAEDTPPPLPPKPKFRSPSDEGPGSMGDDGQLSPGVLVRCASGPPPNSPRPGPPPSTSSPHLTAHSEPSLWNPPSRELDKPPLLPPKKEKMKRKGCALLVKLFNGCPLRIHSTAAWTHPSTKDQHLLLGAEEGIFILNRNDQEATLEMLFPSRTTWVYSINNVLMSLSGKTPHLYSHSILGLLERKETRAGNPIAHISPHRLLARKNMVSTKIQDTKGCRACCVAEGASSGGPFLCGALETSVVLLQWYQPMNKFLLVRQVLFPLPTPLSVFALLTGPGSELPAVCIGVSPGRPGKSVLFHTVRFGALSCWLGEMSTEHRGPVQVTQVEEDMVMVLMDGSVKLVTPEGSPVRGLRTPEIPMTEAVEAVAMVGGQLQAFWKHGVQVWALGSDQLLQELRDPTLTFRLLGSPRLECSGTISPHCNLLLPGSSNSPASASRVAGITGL

| pIC50 | Compound |
| --- | --- |
| 6.00 to 7.00 | CN1CCN(c2ccc(Nc3ccc(-c4ccnc5c4ccn5Cc4ccccc4)c4c3C(=O)NC4)nc2)CC1 [I-257, 4-(1-benzyl-1H-pyrrolo[2,3-b]pyridin-4-yl)-7-((5-(4-methylpiperazin-1-yl)pyridin-2-yl)amino)isoin-dolin-1-one] |
| > 7.00 | CN(C)C1COCCN(c2ccc(Nc3ccc(-c4cnc5cc(F)ccn45)c4c3C(=O)NC4)nc2)C1 (stereo not drawn) [I-509, 7-[[5-[6-(dimethylami-no)-l,4-oxazepan-4-yl]-2-pyridyl]amino]-4-(7-fluoroimidazo [1,2-a]pyridin-3-yl)isoindolin-1-one Formic acid salt] |
| > 7.00 | C[C@H](O)[C@H]1CN(c2ccc(Nc3ccc(-c4cnc5cc(F)ccn45)c4c3C(=O)NC4)nc2)CCO1 [I-634, 4-(7-fluoroimidazo[1,2-a]pyridin-3-yl)-7-((5-((R)-2-((S)-1-hydroxyethyl)morpholino)pyridin-2-yl)amino)isoindolin-1-one] |
| > 7.00 | Cn1ccc2c(-c3ncc(Nc4ccc([C@@H]5CCOC5)c(CN5CC[C@H](O)C5)n4)c4c3CNC4=O)ccnc21 [I-811, 7-((6-(((S)-3-hydroxypyrroli-din-1-yl)methyl)-5-((S)-THF-3-yl)pyridin-2-yl)amino)-4-(1-methyl-1H-pyrrolo[2,3-b]pyridin-4-yl)-2,3-dihydro-1H-pyrrolo[3,4-c]pyridin-1-one] |
| > 7.00 | CNC1CN(c2cccc(Nc3cnc(-c4ccnc5c4ccn5C)c4c3C(=O)NC4)n2)C1 [I-449, 7-[[6-[3-(methylamino)azetidin-1-yl]-2-pyridyl]amino]-4-(1-methylpyrrolo [2,3-b]pyridin-4-yl)-2,3-dihydropyrrolo [3,4-c]pyridin-1-one Formic acid salt] |
| > 7.00 | Cc1ccn2c(-c3ccc(Nc4ccc(C5CCOC5)cn4)c4c3CNC4=O)cnc2c1 (stereo not drawn) [I-155] |
| > 7.00 | Cn1nc(Nc2ccc(-c3cnc4cc(F)ccn34)c3c2C(=O)NC3)cc1C1CCOCC1 [I-408] |
| > 7.00 | CN(C)Cc1nc(Nc2cnc(-c3ccnc4c3ccn4C)c3c2C(=O)NC3)ccc1N1CCOCC1 [I-768, 7-((6-((dimethylamino)-methyl)-5-morpholinopy-ridin-2-yl)amino)-4-(1-methyl-1H-pyrrolo[2,3-b]pyridin-4-yl)-2,3-dihydro-1H-pyrrolo[3,4-c]pyridin-1-one] |
| > 7.00 | CN1CCN(c2ccc(Nc3ccc(-c4ncnc5c4ccn5C)c4c3C(=O)NC4)nc2)CC1 [I-83, 7-[[5-(4-methylpiperazin-1-yl)-2-pyridyl]amino]-4-(7-methylpyrrolo [2,3-d]pyrimidin-4-yl)isoindolin-1-one] |
| > 7.00 | O=C1NCc2c(-c3cnc4cc(F)ccn34)ccc(Nc3ccc(N4CC[C@H](O)[C@@H](F)C4)cn3)c21 [I-400, 7-((5-((3S, 4S)-3-fluoro-4-hydroxy-piperidin-1-yl)pyridin-2-yl)amino)-4-(7-fluoroimidazo [1,2-a]pyridin-3-yl)isoindolin-1-one] |
| > 7.00 | COC[C@H]1CN(c2ccc(Nc3cnc(-c4ccnc5c4ccn5C)c4c3C(=O)NC4)nc2)CC[C@H]1O [I-423, 7-((5-((3R,4R)-4-hydroxy-3-(methoxymeth-yl)piperidin-1-yl)pyridin-2-yl)amino)-4-(1-methyl-l H-4-pyrrolo[2,3-b]pyridin-4-yl)-2,3-dihydro-1H-pyrrolo[3,4-c]pyridin-1-one] |
| > 7.00 | CN(C)Cc1nc(Nc2ccc(-c3cnc4cc(F)ccn34)c3c2C(=O)NC3)ccc1N1CC[C@H](F)[C@@H](O)C1 [I-701, 7-((6-((dimethylamino)-methyl)-5-((3S.4S]-4-fluoro-3-hydroxypiperidin-1-yl)pyridin-2-yl)amino)-4-(7-fluoroimidazo [1,2-a]pyridin-3-yl)isoindolin-1-one] |
| > 7.00 | CN(C)CC1(F)CCCN(c2ccc(Nc3ccc(-c4cnc5cc(F)ccn45)c4c3C(=O)NC4)nc2)C1 (stereo not drawn) [I-503] |
| > 7.00 | Cc1ccn2c(-c3ccc(Nc4ccc(N5CCOC(CN(C)C)C5)cn4)c4c3CNC4=O)cnc2c1F (stereo in doubt) [I-614, (R)-7-((5-(2-((dimethylamino)-methyl)mor-pholino)pyridin-2-yl)amino)-4-(8-fluoro-7-methylimidazo [1,2-a]pyridin-3-yl)isoindolin-1-one] |
| < 6.00 | Cn1ccc2c(-c3ncc(Nc4ccc5c(n4)CNCC5)c4c3CNC4=O)ccnc21 [I-413] |
| > 7.00 | Cn1ccn2c(-c3ccc(Nc4ccc(N5CCC(O)CC5)cn4)c4c3CNC4=O)cnc2c1=O [I-168, 3-[7-[[5-(4-hydroxy-1-piperidyl)-2-pyridyl]amino]-1-oxo-isoindolin-4-yl]-7-methyl-imidazo[1,2-a]pyrazin-8-one] |
| 6.00 to 7.00 | 4-imidazo[1,2- a]pyridin-3-yl- 7-[(5-morpholino-2- pyridyl)-amino]-2,3- dihydropyrrolo [3,4-c]pyridin-1- one [I-198] |
| > 7.00 | CN(C)Cc1cc(Nc2ccc(-c3cnc4cc(Cl)ccn34)c3c2C(=O)NC3)ncc1C1(O)CCOCC1 [I-633, 4-(7-chloroimidazo [1,2-a]pyridin-3-yl)-7-((4-((dimethylamino)-methyl)-5-(4-hydroxytetra-hydro-2H-pyran-4-yl)pyridin-2-yl)amino)isoin-dolin-1-one] |
| > 7.00 | Cc1ccn2c(-c3ccc(Nc4ccc(N5CCO[C@@H](C(C)(C)O)C5)cn4)c4c3CNC4=O)cnc2n1 [I-646, (R)-7-((5-(2-(2-hydroxypropan-2-yl)morpholino)pyridin-2-yl)amino)-4-(7-methylimidazo [1,2-a]pyrimidin-3-yl) isoindolin-1-one] |
| < 6.00 | O=C1NCc2c(-c3cccc4ccnn34)ncc(Nc3ccc(N4CCC(O)CC4)cn3)c21 [I-368, 7-((5-(4-hydroxypiperidin-1-yl)pyridin-2-yl)amino)-4-(pyrazolo[1,5-a]pyridin-7-yl)-2,3-dihydro-1H-pyrrolo[3,4-c]pyridin-1-one] |
| < 6.00 | O=C1NCc2c(-c3c[nH]c4ccccc34)ncc(Nc3ccc(N4CC5CCC(C4)O5)cn3)c21 [I-10, 4-(1H-indol-3-yl)-7-[[5-(8-oxa-3-azabicyclo [3.2.1]octan-3-yl)-2-pyridyl]amino]-2,3-dihydropyrrolo [3,4-c]pyridin-1-one] |
| > 7.00 | CN(C)CC1CN(c2ccc(Nc3ccc(-c4cnc5cc(F)ccn45)c4c3C(=O)NC4)nc2)CCO1 (stereo not drawn) [I-383, 7-((5-(2-((dimethylamino)-methyl)mor pholino)pyridin-2-yl)amino)-4-(7-fluoroimidazo [1,2-a]pyridin-3-yl)isoindolin-1-one] |
| > 7.00 | CN(C)Cc1nc(Nc2cnc(-c3ccnc4c3ccn4C)c3c2C(=O)NC3)ccc1N1CCO[C@H](C(C)(C)O)C1 [I-770, (S)-7-((6-((dimethylamino)-methyl)-5-(2-(2-hydroxypropan-2-yl)morpholino)pyridin-2-yl)amino)-4-(1-methyl-1H-pyrrolo[2,3-b]pyridin-4-yl)-2,3-dihydro-1H-pyrrolo[3,4-c]pyridin-1-one] |
| 6.00 to 7.00 | Cc1ccc2c(-c3ncc(Nc4ccc(N5CCN(C)CC5)cn4)c4c3CNC4=O)c[nH]c2c1 [I-8, 4-(6-methyl-1H-indol-3-yl)-7-[[5-(4-methylpiperazin-1-yl)-2-pyridyl]amino]-2,3-dihydropyrrolo [3,4-c]pyridin-1-one] |
| > 7.00 | CC(C)(O)[C@@H]1CN(c2ccc(Nc3cnc(-c4cnc5ccccn45)c4c3C(=O)NC4)nc2)CCO1 [I-485, 7-[[5-[(2S)-2-(1-hydroxy-1-methyl-ethyl)morpholin-4-yl]-2-pyridyl]amino] 4-imidazo[1,2-a]pyridin-3-yl-2,3-dihydropyrrolo [3,4-c]pyridin-1-one] |
| > 7.00 | O=C1NCc2c(-c3cnc4cc(F)ccn34)ccc(Nc3ccc(N4CC[C@@H](O)[C@H](F)C4)cn3)c21 [I-399, 7-((5-((3R,4R)-3-fluoro-4-hydroxy-piperidin-1-yl)pyridin-2-yl)amino)-4-(7-fluoroimidazo [1,2-a]pyridin-3-yl)isoindolin-1-one] |
| > 7.00 | O=C1NCc2c(-c3cnn4cc(F)ccc34)ccc(Nc3ccc(N4CCC(O)CC4)cn3)c21 [I-465, 4-(6-fluoropyrazolo [1,5-a]pyridin-3-yl)-7-[[5-(4-hydroxy-1-piperidyl)-2-pyridyl]amino] isoindolin-1-one] |
| 6.00 to 7.00 | CN1CCN(c2ccc(Nc3ccc(-c4cccc5nccn45)c4c3C(=O)NC4)nc2)CC1 [I-25, 4-imidazo[1,2-a]pyridin-5-yl-7-[[5-(4-methylpiperazin-1-yl)-2-pyridyl]amino] isoindolin-1-one] |
| > 7.00 | O=C1NCc2c(-c3cnc4cc(F)ccn34)ccc(Nc3ccc([C@@H]4CCOC4)cn3)c21 [I-222, (S)-4-(7-fluoroimidazo [1,2-a]pyridin-3-yl)-7-((5-(tetrahydro-furan-3-yl)pyridin-2-yl)amino)isoin-dolin-1-one] |
| 6.00 to 7.00 | O=C1NCc2c(-c3cnn4c3CCCC4)ccc(Nc3ccc(N4CCC[C@@]5(CCNC5=O)C4)cn3)c21 [I-445, (R)-7-(6-((3-oxo-7-(4,5,6,7-tetrahydropyra-zolo[1,5-a]pyridin-3-yl)isoindolin-4-yl)amino)pyri-din-3-yl)-2,7-diazaspiro[4.5] decan-1-one] |

| Compound | pIC50 |
| --- | --- |
| (R)-7-((5-(4-hydroxypiperidin-1-yl)pyridin-2-yl)amino)-3-methyl-4-(1-methyl-1H-pyrrolo[2,3-b]pyridin-4-yl)isoindolin-1-one [I-287] | > 7.00 |
| CN(C)Cc1ccn2c(-c3ccc(Nc4ccc(N5CCC(O)CC5)cn4)c4c3CNC4=O)cnc2c1 [I-380, 4-(7-((dimethylamino)-methyl)imi-dazo[1,2-a]pyridin-3-yl)-7-((5-(4-hydroxy-piperidin-1-yl)pyridin-2-yl)amino)isoin-dolin-1-one] | 6.00 to 7.00 |
| CO[C@@H]1CC[C@@H](CO)N(c2ccc(Nc3ccc(-c4cnn5c4CCCC5)c4c3C(=O)NC4)nc2)C1 (stereo in doubt) [I-572, 7-((5-((2R,5R)-2-(hydroxymeth-yl)-5-methoxy-piperidin-1-yl)pyridin-2-yl)amino)-4-(4,5,6,7-tetralndropyra-zolo[1,5-a]pyridin-3-yl)isoindolin-1-one] | > 7.00 |
